Source: PMC7566600, “Engineering Af1521 improves ADP-ribose binding and identification of ADP-ribosylated proteins” (Nature Communications, 2020)

Target: T1, WT Af1521 macro domain (Archaeoglobus fulgidus, UniProt O28751)
T1 construct: gene AF_1521; macro domain, His-tagged
T1 sequence (O28751 1-192): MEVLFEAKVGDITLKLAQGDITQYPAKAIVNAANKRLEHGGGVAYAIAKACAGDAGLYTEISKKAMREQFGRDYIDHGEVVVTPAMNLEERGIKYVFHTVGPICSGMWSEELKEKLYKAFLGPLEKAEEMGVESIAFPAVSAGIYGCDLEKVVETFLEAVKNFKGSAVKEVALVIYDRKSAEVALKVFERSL
Test: SPR ([…] kinetic fit; steady-state fit gave […]), immobilized protein
Format: binding

Nc1ncnc2c1ncn2[C@@H]1O[C@H](COP(=O)(O)OP(=O)(O)OC[C@H]2O[C@H](O)[C@H](O)[C@@H]2O)[C@@H](O)[C@H]1O [ADP-ribose]
Kd: 2.879 ± 0.009 µM
